Measured values taken from patent US20040137574A1, “Novel polypeptide” (Pfizer Inc, priority 2000, published 2004).

Key:
PFI-019 = target: T1, PFI-019 (Homo sapiens, UniProt Q96P68); assay: FLIPR cell-based assay for agonist activation of PFI-019 (calcium fluorescence, Fluo3); settings: PFI-019-transfected HEK 293 cells expressing mouse Gα15, fluorescence intensity versus time
T1 construct: amplify the PFI-019 coding region from human genomic DNA; N-terminal polyhistidine/Xpress leader of vector pcDNA4/HisMax-TOPO (inferred from the vector name); expressed in transfected cells; host or cells: HEK293 cells expressing the mouse Galpha15 gene, transiently transfected
Description: Fluorescence Imaging Plate Reader (FLIPR®) technology was employed as a means to detect activation of PFI-019 by agonists in a cell-based assay.
(§1) 5×10^6 Human Embryonic Kidney (HEK) 293 cells expressing the mouse Gα15 gene (from here on called '293 cells'), were transiently transfected with 7.5 μg of PFI-019 (contained within the pcDNA4HIS-max-TOPO (Invitrogen) plasmid) vector, or vector alone, using Lipofectamine Plus® reagent (Gibco BRL) as per the manufacturer's protocol. The plasmid pcDNA4HIS-max-TOPO was used as it contains elements that up-regulate the level of gene transcription over standard pcDNA3.1 vectors. 24 hrs post-transfection, the cells were detached from the flask using Trypsin/EDTA solution (LTI) and seeded into a black sided, Poly-D-lysine-treated, 96-well plate (Becton Dickinson) at 5×10^4 cells/well density. The plates were left overnight to allow the cells to adhere to the bottom of the wells. […] The FLIPR® processing involved reading the fluorescence for all samples for 2 minutes; during this time the fluorescence baseline was determined for the first 10 seconds. The desired amount of compound was then automatically transferred to the wells, and the fluorescence was continuously monitored for the remainder of the time. […]

[1] = test system: Vector-only transfected 293 cells; assay: FLIPR cell-based assay, vector-only (mock) transfected control cells; parameters: species or system human; settings: vector-only transfected HEK 293 cells expressing mouse Gα15
Description: as §1

## Nc1nc(Cl)nc2c1ncn2[C@@H]1O[C@H](COP(=O)([O-])OP(=O)([O-])OP(=O)([O-])[O-])[C@@H](O)[C@H]1O.[Na+].[Na+].[Na+].[Na+] [2-chloro-ATP, 2-chloroadenosine triphosphate tetrasodium]
PFI-019
  stimulation of PFI-019 (fluorescence response): stimulation of PFI-019
[1]
  response of vector-only transfected 293 cells (fluorescence): no measurable response

## O=c1ccn([C@@H]2O[C@H](COP(=O)(O)OP(=O)(O)OP(=O)(O)O)[C@@H](O)[C@H]2O)c(=O)[nH]1 [UTP, Uridine triphosphate]
PFI-019
  stimulation of PFI-019 (fluorescence response): stimulation of PFI-019
[1]
  response of vector-only transfected 293 cells (fluorescence): no measurable response
